Key:
cochlear hair cells = test: In vivo GTTR uptake in mouse cochlea after sub-cutaneous injection; design: species or system mice
Procedure: (§1) Gentamicin sulfate was conjugated to Texas Red (Molecular Probes) using published methods (1) to produce a 300:1 molar dilution of gentamicin-Texas Red conjugate (GTTR). Mice were injected sub-cutaneously with a single 300 mg/kg dose of GTTR. Frogs were injected directly into the lymph sac (there is no sub-cutaneous space in frogs, lymph sacs drain directly into the blood). Control animals received an equivalent dose of hydrolyzed Texas Red succinimidyl esters only.
At specific time-points (0.5, 1, 2, 3, 6, 7.5, 9 and 24 hours) following injection, animals were anesthetized and inner ear organs were excised and fixed in 4% formaldehyde overnight. After washing in PBS, frog and murine organs were permeabilized using ice-cold acetone, and all organs were labeled with Alexa-488-conjugated, or FITC-conjugated phalloidin to localize filamentous actin. […]
For data analysis of murine samples, area intensity measurements of optically-sectioned hair cells (approximately 1-2 microns below the cuticular plate) were obtained from apical and basal cochlear regions (25 hair cells per row in each region). The mean basal intensity was divided by the mean apical intensity of an equivalent number of hair cells to derive a ratio that indicates the relative degree of fluorescence in basal hair cells compared to apical hair cells. […]

[1] = test system: bullfrog saccular hair cells; test: In vivo GTTR uptake in bullfrog saccule after lymph sac injection
Procedure: as §1
At specific time-points (0.5, 1, 2, 3, 6, 7.5, 9 and 24 hours) following injection, animals were anesthetized and inner ear organs were excised and fixed in 4% formaldehyde overnight. After washing in PBS, frog and murine organs were permeabilized using ice-cold acetone, and all organs were labeled with Alexa-488-conjugated, or FITC-conjugated phalloidin to localize filamentous actin. Mouse and frog inner ear epithelia were whole-mounted and observed using a Bio-Rad MRC 1024 ES laser scanning confocal system attached to a Nikon Eclipse TE300 inverted microscope. Alexa-488 and Texas Red images were collected sequentially using 1024×1024 pixel box size using a 4× (n.a. 0.25) and a 60× lens (n.a. 1.4) with an xy resolution=230 nm and xz resolution=440 nm. All control organs were imaged at the same laser intensity and gain settings as treated organs.

MDCK cells = test: GTTR uptake into MDCK cells under TRPV1 agonists/antagonists, cation channel blockers, cations and pH (30-60 seconds, 20° C., FATX fixation, confocal imaging); conditions: 75 μg/ml PIP2 added to 1 μg/ml GTTR in PBS, 1 minute
Source text: MDCK cells were used as a model system to test regulation of GTTR uptake by conditions known to produce or modify a cation current through the TRPV1 channel. Conditions tested were varying extracellular calcium concentrations, pH, specific agonists, specific antagonists, and the non-specific cation channel blocker Ruthenium Red. In addition, we pre-mixed PIP2 with GTTR to determine whether that anionic phospholipid, known to bind gentamicin, would alter GTTR uptake. All these assays were done at room temperature (20° C.), for 30 or 60 seconds, and using doses of GTTR of 5 to 10 μg/ml, which are far below the typical therapeutic level of <300 μg/ml. Buffers used for treatment were as described for each experiment. Cells were quickly washed to replace culture medium with treatment buffer, treated as indicated, washed again after treatment, fixed immediately with 4% formaldehyde and 0.5% Triton X-100 (FATX), and washed prior to imaging.
Methods: Cells were seeded into 8-well coverglass chambers at 3000 cells/well and grown for 5 days.
Cells were washed three times with the buffer to be used in the particular experiment, treated with GTTR and experimental variable for 30 or 60 seconds at 20° C., precluding endocytosis. Following treatment, cells were rinsed three times with buffer, then fixed and delipidated with 4% formaldehyde plus 0.5% Triton X-100 (FATX) for 45 minutes. Following fixation, cells were rinsed with PBS (Invitrogen, CA) for at least 4-6 times, or until foaming in the suction pipette ceased. In contrast to previous experiments, no FBS was present in the treatment media, allowing for more rapid uptake of the antibiotic-based GTTR.
MDCK cells were washed with Hank's buffered salt solution (HBSS; Invitrogen, CA), then placed into buffers of varying potassium concentrations. HBSS was mixed with equi-osmolar KCl/HBSS to produce the required K^+ concentrations. Cells were treated with 1 μg/mL GTTR for 1 minute, then washed and fixed as described above.
Cells were washed with PBS (Invitrogen, CA), then placed into buffers containing varying concentrations of calcium, obtained by mixing HBSS with equimolar CaCl2, each at pH 7.3. Cells were treated with 5 μg/mL of GTTR for 30 seconds, then washed and fixed as above.
Cells were washed with saline, then treated with 5 μg/mL of GTTR in saline buffers of varying pH for 30 seconds, then washed and fixed as above. Sodium hydroxide and hydrochloric acid were used to alter pH. These experiments were performed in three different saline buffers: (i) PBS (no calcium), (ii) a mixture of […] for a final calcium concentration of 0.32 mM, and (iii) a mixture of three parts PBS to one part HBSS for a final calcium concentration of 0.97 mM.
Cells were washed three times with Ca^++-free saline (0.9% NaCl), then treated with 5 μg/mL GTTR and one of the following for 30 seconds: TRPV1 agonists (resiniferatoxin [RTX]; or anandamide [AND]; Alexis Biochemicals, San Diego, Calif.); or antagonists (iodo-RTX, or SB 366791; Tocris, Ellisville, Mo.). Cells were then washed in saline and fixed as above.
Cells were washed three times with Ca^++-free 0.9% NaCl, then treated with 5 μg/mL GTTR and one of the following for 30 seconds: 100 μM Ruthenium Red, 100 μM Ruthenium Red plus one of the TRPV1 agonists or antagonists described above; or lanthanum (La^+++) at 0.5 or 5 mM.

[2] = PIP2 quenching of GTTR and TR fluorescence (fixed cells and 3-d scanning fluorescence spectroscopy); conditions: 1 mg/ml PIP2 for 1.5 hour, imaged in PIP2 solution; recovered after delipidation
Procedure: PIP2: Monolayer MDCK cells were grown in coverglass chambers as described above. After fixation, delipidation, washing and imaging (FIG. 27B), cells were treated with 1 mg/mL phosphatidylinositol-4,5-bisphosphate (PIP2, Echelon Biosciences, Salt Lake City, Utah) for 1.5 hours and re-imaged (FIG. 27E), prior to a second delipidation with 0.5% Triton, washing and imaging again (FIG. 27F).
Spectrophotometry: 3-d scanning fluorescence spectroscopy of solutions containing TR or GTTR with or without (PIP2) were performed using a Safire fluorescence microplate reader (Tecan, Research Triangle Park, N.C.). GTTR (100 μg/mL; weight as gentamicin in molecule) and PIP2 (155 μg/mL; approximately equimolar) were mixed vigorously in PBS solution and allowed to stand at room temperature for ½ hour prior to scanning. This was compared to the same concentration of GTTR alone in solution. Similar hydrolyzed Texas Red solutions (at the same concentration as the Texas Red moiety in GTTR solutions), with or without PIP2, were used as controls. Excitation and emission spectra were obtained over an excitation range of 570-604 nm (bandwidth 5 nm) and an emission range of 610-650 nm (bandwidth 5 nm).

Compound	fluorescence in inner ear epithelia (cochlear hair cells)	fluorescence in inner ear epithelia [1]	GTTR uptake (MDCK cells)	GTTR fluorescence in FATX-fixed MDCK cells [2]
O=S(=O)([O-])c1cc(S(=O)(=O)O)ccc1C1=c2cc3c4c(c2Oc2c1cc1c5c2CCCN5CCC1)CCC[N+]=4CCC3 [hydrolyzed TR, Texas Red]	negligible fluorescence in their inner ear epithelia at all time points	negligible fluorescence in their inner ear epithelia at all time points		
phosphatidylinositol-4,5-bisphosphate [PIP2]			large reduction in GTTR uptake	clearly quenched the GTTR fluorescence

— patent US20070082858A1, “Methods and compositions for the prevention of toxic side effects of aminoglycoside medications” (priority 2004, published 2007)
